Test systems include SK-MEL-28; A549; OVCAR-5; SNB-78; SK-OV-3; HCT-116; K562; SK-MEL-2; HCT-15; NCI-H460; M19-MEL; SF-268; SF-539; NCI-H23; MOLT-4; KM-20L2; EKVX; MDA-MB-231; MDA-MB-435; BT-549.
What all share (test): NCI tumour cell line growth inhibition, 48 h

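Dose response: 5 concentrations. Exposure: 48 h. Format: 96-well plates. Endpoint: linear interpolation; highest concentration if not reached. The concentration for 50% growth inhibition is given as GI50.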 Calls of active or inactive are those of the source. No stated cut-off is given here; in the data, active = GI50 up to about 1.1 µM and inactive = higher.

4 molecules from ChEMBL document CHEMBL1201862, “PubChem BioAssay data set” (2004) can be followed below.

For `Cc1ccc(NC(=O)CC2Sc3ccccc3NC2=O)cc1C` (configuration not stated), the GI50 is > 100 µM (inactive) in the assay with SK-MEL-28; 41.2 µM (inactive) in the assay with A549; > 100 µM (inactive) with OVCAR-5; > 100 µM (inactive) with SNB-78; > 100 µM (inactive) in the assay with SK-OV-3; 41.6 µM (inactive) in the assay with HCT-116. Besides, the GI50 was 28.2 µM (inactive) in the assay with K562; > 100 µM (inactive) with SK-MEL-2; 85.7 µM in the assay with HCT-15; 58.6 µM (inactive) in the assay with NCI-H460; > 100 µM (inactive) in the assay with M19-MEL; 60 µM (inactive) with SF-268. Further, the GI50 in the assay with SF-539 was 85.3 µM (inactive); with NCI-H23, > 100 µM (inactive); in the assay on MOLT-4, 8.22 µM (inactive); in the assay with KM-20L2, > 100 µM (inactive); in the assay with EKVX, > 100 µM (inactive).
Regarding `COC(=O)[C@]12CC=C3O[C@@H]4OC5(CCCCC5)O[C@@H]4[C@H]3C1C(=O)C=CC2=O` (some centres not stated), the GI50 with SK-MEL-28 was 18.9 µM (inactive); in the assay with A549 it was 32.1 µM (inactive); with OVCAR-5, 20.5 µM (inactive); in the assay on SNB-78, 18.8 µM (inactive); in the assay with SK-OV-3 it was 30.7 µM (inactive); with HCT-116 it was 17.5 µM (inactive). Further, the GI50 in the assay on K562 is 14.6 µM (inactive); with MDA-MB-231 it was 16.8 µM (inactive); in the assay on SK-MEL-2 it was 22.2 µM (inactive); in the assay on HCT-15, 15.6 µM; with NCI-H460 it was 22.3 µM (inactive); with M19-MEL, 16 µM (inactive). Besides, the GI50 is 3.97 µM (inactive) with SF-268; 19.6 µM (inactive) in the assay on SF-539; > 10 µM (inactive) with MDA-MB-435; 17.1 µM (inactive) in the assay with NCI-H23; 7.03 µM (inactive) in the assay on MOLT-4; 19.7 µM (inactive) in the assay with KM-20L2. Moreover, the GI50 in the assay on EKVX was 33.2 µM (inactive); in the assay on BT-549, 19.2 µM (inactive).
As for `Cc1c2cc[n+](C)cc2c(C)c2c1sc1ccccc12`, the GI50 with SK-MEL-28 was 2.45 µM (inactive); in the assay on A549 it was 0.159 µM (active); in the assay with OVCAR-5 it was 3.86 µM (inactive); with SNB-78, 0.855 µM (active); in the assay on SK-OV-3, 1.49 µM (inactive); with HCT-116, 3.63 µM (inactive). Moreover, the GI50 with K562 is 2.26 µM (inactive); with MDA-MB-231, 2.39 µM (inactive); in the assay with SK-MEL-2, 2.9 µM (inactive); in the assay with HCT-15 it was 18.3 µM; with NCI-H460, 0.35 µM (active); with M19-MEL, 1.1 µM (active). For the same molecule, the GI50 with SF-268 is 0.199 µM (active); with SF-539 it was 0.332 µM (active); in the assay with MDA-MB-435, 2.05 µM (inactive); in the assay on NCI-H23, 0.528 µM (active); in the assay on MOLT-4, 0.131 µM (active); in the assay with KM-20L2, 2.04 µM (inactive). The GI50 with EKVX is 3.01 µM (inactive); with BT-549 it was 0.294 µM (active).
`CN(C)C(=S)/N=c1\ssc(=S)n1Cc1ccco1`: the GI50 in the assay on SK-MEL-28 is 8.07 µM (inactive); with A549, 1.98 µM (inactive); in the assay with OVCAR-5, 32 µM (inactive); in the assay on SNB-78, 3.18 µM (inactive); in the assay on SK-OV-3 it was 1.71 µM (inactive); with HCT-116, 1.53 µM (inactive). Moreover, the GI50 in the assay with K562 was 0.348 µM (active); in the assay on MDA-MB-231, 10.4 µM (inactive); in the assay on SK-MEL-2, 2.37 µM (inactive); in the assay with HCT-15, 2.2 µM; in the assay on NCI-H460 it was 1.34 µM (inactive); in the assay on M19-MEL, 2.16 µM (inactive). The GI50 with SF-268 is 7.46 µM (inactive); with SF-539, 1.95 µM (inactive); in the assay on MDA-MB-435, 0.274 µM (active); in the assay on NCI-H23, 2.38 µM (inactive); with MOLT-4, 2.09 µM (inactive); in the assay with KM-20L2, 1.93 µM (inactive). Also, the GI50 with EKVX was 6.9 µM (inactive); in the assay with BT-549 it was 12.2 µM (inactive).
